Test results taken from publication PMC11035696, “Prospective de novo drug design with deep interactome learning” (Nature Communications, 2024).

Assays:
[1] = Protein binding, unbound free fraction; type: in vitro ADME; conditions: human, plasma
Experimental: (§1) Compounds 1–3 were characterized in a hybrid reporter gene assay for their agoniztic effect on human nuclear receptors PPARα/γ/δ, RXRα, FXRα, RARα in HEK293T cells. Compound 1 was tested in an isothermal titration calorimetry (ITC) assay to measure direct binding affinity to the ligand-binding domain of PPARγ. ADME properties were measured in standardized assays at Roche.
(§2) SI11Absorption Distribution Metabolism and Excretion and Toxicity Data
(§3) To assess the drug-like characteristics of the newly designed PPAR modulators, a series of tests were conducted covering various aspects of absorption, distribution, metabolism, and excretion (ADME) properties. Specifically, these assessments included the parallel artificial membrane permeability assay (PAMPA) with permeation co- […]
(§4) efficients ([…]), LogD measurements, microsomal clearance, hepatocyte clearance, P-glycoprotein (Pgp) efflux ratio and binding and the unbound free fraction. […]
(§5) Table S14: Absorption distribution metabolism and excretion (ADME) properties of compounds 1 and 2. The […]
(§6) values for […], LogD, protein binding, P-glycoprotein (Pgp) efflux ratio and permeability, and hepato-cyte clearance are presented as the mean and standard deviation, with a sample size of N = 3, i.e., 3 technical replicates each. The values for microsomal clearance and CYP-inhibition represent single point measurements. […]

[2] = tested on: NICOTINIC RECEPTOR, NEURONAL (α-BGTX insens.); test: Safety off-target panel, binding; design: species or system Human; conditions: 10 µM, single point
Text: (§7) Table S9-S12 list all targets, their species, inhibition (%) and assay type for the experiments conducted in the
(§8) off-targets. […] The numbers for mean
(§9) inhibition (%) represent single point measurements.
(§10) off-targets. […] The numbers for
(§11) mean inhibition (%) represent single point measurements.

[3] = Lipophilicity (LogD pH 7.4); type: physicochemical
Experimental: as §1, §2, §3, §4, §5, §6

HISTAMINE H1 RECEPTOR = HISTAMINE H1 RECEPTOR (Homo sapiens, UniProt P35367); test: Safety off-target panel, binding; conditions: single point
Text: as §7, §8, §9, §10, §11

HISTAMINE H2 RECEPTOR = HISTAMINE H2 RECEPTOR (Homo sapiens, UniProt P25021); test: Safety off-target panel, binding; conditions: single point
Text: as §7, §8, §9, §10, §11

[4] = biological target: NICOTINIC RECEPTOR, MUSCLE (Homo sapiens, UniProt P02708+P07510+P11230+Q07001); test: Safety off-target panel, binding; conditions: single point
Text: as §7, §8, §9, §10, §11

ANDROGEN RECEPTOR = ANDROGEN RECEPTOR (Homo sapiens, UniProt P10275); test: Safety off-target panel, binding; conditions: single point
Text: as §7, §8, §9, §10, §11

[5] = biological target: NOREPINEPHRINE TRANSPORTER (Homo sapiens, UniProt P23975); test: Safety off-target panel, binding; conditions: single point
Text: as §7, §8, §9, §10, §11

α2A-ADRENOCEPTOR = α2A-ADRENOCEPTOR (Homo sapiens, UniProt P08913); test: Safety off-target panel, binding; conditions: single point
Text: as §7, §8, §9, §10, §11

ADENOSINE A1 RECEPTOR = ADENOSINE A1 RECEPTOR (Homo sapiens, UniProt P30542); test: Safety off-target panel, binding; conditions: single point
Text: as §7, §8, §9, §10, §11

alpha1A-ADRENOCEPTOR = alpha1A-ADRENOCEPTOR (Homo sapiens, UniProt P35348); test: Safety off-target panel, binding; conditions: single point
Text: as §7, §8, §9, §10, §11

β2-ADRENOCEPTOR = β2-ADRENOCEPTOR (Homo sapiens, UniProt P07550); test: Safety off-target panel, binding; conditions: single point
Text: as §7, §8, §9, §10, §11

[6] = biological target: CHOLECYSTOKININ 1 RECEPTOR (Homo sapiens, UniProt P32238); test: Safety off-target panel, binding; conditions: single point
Text: as §7, §8, §9, §10, §11

5HT2A = 5HT2A (Homo sapiens, UniProt P28223); test: Safety off-target panel, binding; conditions: single point
Text: as §7, §8, §9, §10, §11

MUSCARINIC RECEPTOR M2 = MUSCARINIC RECEPTOR M2 (Homo sapiens, UniProt P08172); test: Safety off-target panel, binding; conditions: single point
Text: as §7, §8, §9, §10, §11

[7] = biological target: ANGIOTENSIN II RECEPTOR 1 (Homo sapiens, UniProt P30556); test: Safety off-target panel, binding; conditions: single point
Text: as §7, §8, §9, §10, §11

SEROTONIN TRANSPORTER = SEROTONIN TRANSPORTER (Homo sapiens, UniProt P31645); test: Safety off-target panel, binding; conditions: single point
Text: as §7, §8, §9, §10, §11

5HT2B = 5HT2B (Homo sapiens, UniProt P41595); test: Safety off-target panel, binding; conditions: single point
Text: as §7, §8, §9, §10, §11

DOPAMINE D1 RECEPTOR = DOPAMINE D1 RECEPTOR (Homo sapiens, UniProt P21728); test: Safety off-target panel, binding; conditions: single point
Text: as §7, §8, §9, §10, §11

5HT1A = 5HT1A (Homo sapiens, UniProt P08908); test: Safety off-target panel, binding; conditions: single point
Text: as §7, §8, §9, §10, §11

κ OPIOID RECEPTOR = κ OPIOID RECEPTOR (Homo sapiens, UniProt P41145); test: Safety off-target panel, binding; conditions: single point
Text: as §7, §8, §9, §10, §11

µ OPIOID RECEPTOR = µ OPIOID RECEPTOR (Homo sapiens, UniProt P35372); test: Safety off-target panel, binding; conditions: single point
Text: as §7, §8, §9, §10, §11

CANNABINOID RECEPTOR CB1 = CANNABINOID RECEPTOR CB1 (Homo sapiens, UniProt P21554); test: Safety off-target panel, binding; conditions: single point
Text: as §7, §8, §9, §10, §11

HISTAMINE H3 RECEPTOR = HISTAMINE H3 RECEPTOR (Homo sapiens, UniProt Q9Y5N1); test: Safety off-target panel, binding; conditions: single point
Text: as §7, §8, §9, §10, §11

[8] = biological target: GLYCINE RECEPTOR, STRYCHNINE INSENSITIVE (Rattus norvegicus, UniProt P35439); test: Safety off-target panel, binding; conditions: read-out: Mean inhibition (%)
Text: as §7, §8, §9, §10, §11

[9] = biological target: DOPAMINE D2 RECEPTOR (short) (Homo sapiens, UniProt P14416); test: Safety off-target panel, binding; conditions: single point
Text: as §7, §8, §9, §10, §11

5HT3 = 5HT3 (Homo sapiens, UniProt P46098); test: Safety off-target panel, binding; conditions: single point
Text: as §7, §8, §9, §10, §11

PROSTAGLANDIN F RECEPTOR = PROSTAGLANDIN F RECEPTOR (Homo sapiens, UniProt P43088); test: Safety off-target panel, binding; conditions: single point
Text: as §7, §8, §9, §10, §11

GLUCOCORTICOID RECEPTOR = GLUCOCORTICOID RECEPTOR (Homo sapiens, UniProt P04150); test: Safety off-target panel, binding; conditions: single point
Text: as §7, §8, §9, §10, §11

ESTROGEN RECEPTOR α = ESTROGEN RECEPTOR α (Homo sapiens, UniProt P03372); test: Safety off-target panel, binding; conditions: single point
Text: as §7, §8, §9, §10, §11

PPARγ = PPARγ (Homo sapiens, UniProt P37231); test: Safety off-target panel, binding; conditions: single point
Text: as §7, §8, §9, §10, §11

Sequence of UniProt P04150 (P04150 whole entry): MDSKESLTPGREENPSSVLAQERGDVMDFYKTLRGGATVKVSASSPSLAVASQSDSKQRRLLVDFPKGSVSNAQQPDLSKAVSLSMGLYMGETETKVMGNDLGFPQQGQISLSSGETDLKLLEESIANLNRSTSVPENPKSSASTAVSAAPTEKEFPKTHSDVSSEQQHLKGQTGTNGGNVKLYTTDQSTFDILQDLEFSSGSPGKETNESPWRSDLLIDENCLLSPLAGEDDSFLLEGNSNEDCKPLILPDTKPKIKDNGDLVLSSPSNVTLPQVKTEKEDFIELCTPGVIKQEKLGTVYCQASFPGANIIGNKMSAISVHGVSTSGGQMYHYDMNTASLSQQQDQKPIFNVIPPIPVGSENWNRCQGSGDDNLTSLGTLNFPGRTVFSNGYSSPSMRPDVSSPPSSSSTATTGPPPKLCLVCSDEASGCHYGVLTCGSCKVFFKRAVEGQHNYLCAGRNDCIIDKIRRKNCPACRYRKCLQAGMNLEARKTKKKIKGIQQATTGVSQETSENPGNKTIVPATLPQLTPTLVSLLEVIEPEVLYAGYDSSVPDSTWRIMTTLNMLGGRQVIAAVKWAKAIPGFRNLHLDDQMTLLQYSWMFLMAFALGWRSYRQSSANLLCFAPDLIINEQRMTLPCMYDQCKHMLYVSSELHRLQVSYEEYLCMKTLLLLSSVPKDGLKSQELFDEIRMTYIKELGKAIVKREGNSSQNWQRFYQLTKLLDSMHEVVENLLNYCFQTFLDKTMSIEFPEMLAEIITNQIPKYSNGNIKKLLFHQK
Sequence of DOPAMINE D2 RECEPTOR (short) (P14416 1-414 isoform P14416-2): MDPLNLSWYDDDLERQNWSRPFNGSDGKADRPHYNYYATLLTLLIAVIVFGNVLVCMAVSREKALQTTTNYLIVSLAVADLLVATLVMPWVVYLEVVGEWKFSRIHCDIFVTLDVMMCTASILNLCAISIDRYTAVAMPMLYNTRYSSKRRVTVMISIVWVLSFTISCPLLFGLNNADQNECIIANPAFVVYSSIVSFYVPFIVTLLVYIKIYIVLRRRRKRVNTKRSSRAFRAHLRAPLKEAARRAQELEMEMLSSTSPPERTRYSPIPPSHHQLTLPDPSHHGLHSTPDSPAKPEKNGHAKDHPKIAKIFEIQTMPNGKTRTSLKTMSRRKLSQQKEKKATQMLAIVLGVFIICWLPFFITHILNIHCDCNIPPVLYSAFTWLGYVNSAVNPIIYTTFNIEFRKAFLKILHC
Sequence of 5HT3 (P46098 24-478): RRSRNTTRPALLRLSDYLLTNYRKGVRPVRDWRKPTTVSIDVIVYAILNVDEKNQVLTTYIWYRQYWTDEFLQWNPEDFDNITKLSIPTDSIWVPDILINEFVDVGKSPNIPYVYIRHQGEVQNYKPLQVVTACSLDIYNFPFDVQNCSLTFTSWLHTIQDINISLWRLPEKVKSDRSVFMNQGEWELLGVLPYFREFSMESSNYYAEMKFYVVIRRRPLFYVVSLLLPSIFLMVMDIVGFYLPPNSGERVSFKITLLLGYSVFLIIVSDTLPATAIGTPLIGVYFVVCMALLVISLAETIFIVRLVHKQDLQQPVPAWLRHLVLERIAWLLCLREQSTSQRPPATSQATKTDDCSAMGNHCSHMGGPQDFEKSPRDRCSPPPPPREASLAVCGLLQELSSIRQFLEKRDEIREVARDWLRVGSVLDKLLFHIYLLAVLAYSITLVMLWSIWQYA
Sequence of NICOTINIC RECEPTOR, MUSCLE (P02708 whole entry): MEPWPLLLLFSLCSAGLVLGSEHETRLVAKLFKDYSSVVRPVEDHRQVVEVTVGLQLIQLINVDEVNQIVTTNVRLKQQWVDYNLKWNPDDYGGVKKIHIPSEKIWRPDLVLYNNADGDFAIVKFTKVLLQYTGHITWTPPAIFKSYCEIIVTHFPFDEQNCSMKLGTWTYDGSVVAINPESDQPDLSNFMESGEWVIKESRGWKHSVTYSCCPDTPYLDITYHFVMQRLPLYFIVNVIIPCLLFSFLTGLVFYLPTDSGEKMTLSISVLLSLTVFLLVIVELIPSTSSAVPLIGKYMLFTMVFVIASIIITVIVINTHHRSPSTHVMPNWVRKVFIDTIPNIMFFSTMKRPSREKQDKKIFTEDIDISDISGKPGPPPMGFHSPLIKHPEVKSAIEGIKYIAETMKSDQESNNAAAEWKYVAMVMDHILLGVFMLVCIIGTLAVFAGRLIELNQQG
Sequence of NICOTINIC RECEPTOR, MUSCLE (P11230 24-501): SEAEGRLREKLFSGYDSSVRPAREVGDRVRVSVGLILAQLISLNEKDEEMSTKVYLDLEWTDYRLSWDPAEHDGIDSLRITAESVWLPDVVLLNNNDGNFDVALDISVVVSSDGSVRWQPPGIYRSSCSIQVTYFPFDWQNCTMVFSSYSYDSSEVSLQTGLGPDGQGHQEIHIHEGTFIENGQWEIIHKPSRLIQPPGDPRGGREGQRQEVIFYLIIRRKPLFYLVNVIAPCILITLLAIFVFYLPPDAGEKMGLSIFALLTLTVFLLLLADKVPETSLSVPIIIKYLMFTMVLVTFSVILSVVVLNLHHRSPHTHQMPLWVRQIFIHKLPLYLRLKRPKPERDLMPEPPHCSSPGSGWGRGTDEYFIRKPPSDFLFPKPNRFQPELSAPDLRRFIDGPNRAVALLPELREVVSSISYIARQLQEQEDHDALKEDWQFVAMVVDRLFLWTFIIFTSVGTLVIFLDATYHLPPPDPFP
Sequence of NICOTINIC RECEPTOR, MUSCLE (Q07001 22-517): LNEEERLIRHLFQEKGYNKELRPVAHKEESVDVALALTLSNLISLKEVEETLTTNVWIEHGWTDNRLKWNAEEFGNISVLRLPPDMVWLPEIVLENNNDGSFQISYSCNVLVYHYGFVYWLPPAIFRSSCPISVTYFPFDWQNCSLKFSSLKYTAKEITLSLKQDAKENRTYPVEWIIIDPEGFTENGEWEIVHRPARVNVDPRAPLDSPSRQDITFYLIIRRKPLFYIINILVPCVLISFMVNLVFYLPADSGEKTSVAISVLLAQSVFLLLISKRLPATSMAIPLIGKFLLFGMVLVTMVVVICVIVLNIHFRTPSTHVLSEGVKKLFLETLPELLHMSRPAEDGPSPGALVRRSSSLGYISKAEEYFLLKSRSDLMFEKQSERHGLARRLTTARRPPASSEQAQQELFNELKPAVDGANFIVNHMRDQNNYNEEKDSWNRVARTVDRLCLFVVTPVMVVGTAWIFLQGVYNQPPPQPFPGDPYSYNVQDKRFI
Sequence of NICOTINIC RECEPTOR, MUSCLE (P07510 23-517): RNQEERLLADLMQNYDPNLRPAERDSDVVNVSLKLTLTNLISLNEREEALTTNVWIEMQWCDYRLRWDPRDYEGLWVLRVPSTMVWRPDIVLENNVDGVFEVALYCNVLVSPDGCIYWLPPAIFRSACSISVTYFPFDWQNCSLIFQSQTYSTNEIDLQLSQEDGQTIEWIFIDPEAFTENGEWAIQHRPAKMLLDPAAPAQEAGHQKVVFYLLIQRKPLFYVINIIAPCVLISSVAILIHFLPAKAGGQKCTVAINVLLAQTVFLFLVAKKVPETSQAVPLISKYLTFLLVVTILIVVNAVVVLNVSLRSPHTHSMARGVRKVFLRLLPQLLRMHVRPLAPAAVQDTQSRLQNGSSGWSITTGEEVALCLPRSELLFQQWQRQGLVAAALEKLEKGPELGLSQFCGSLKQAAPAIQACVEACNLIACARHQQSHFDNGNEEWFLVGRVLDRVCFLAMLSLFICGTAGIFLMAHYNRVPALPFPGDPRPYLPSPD
Sequence of ANDROGEN RECEPTOR (P10275 whole entry): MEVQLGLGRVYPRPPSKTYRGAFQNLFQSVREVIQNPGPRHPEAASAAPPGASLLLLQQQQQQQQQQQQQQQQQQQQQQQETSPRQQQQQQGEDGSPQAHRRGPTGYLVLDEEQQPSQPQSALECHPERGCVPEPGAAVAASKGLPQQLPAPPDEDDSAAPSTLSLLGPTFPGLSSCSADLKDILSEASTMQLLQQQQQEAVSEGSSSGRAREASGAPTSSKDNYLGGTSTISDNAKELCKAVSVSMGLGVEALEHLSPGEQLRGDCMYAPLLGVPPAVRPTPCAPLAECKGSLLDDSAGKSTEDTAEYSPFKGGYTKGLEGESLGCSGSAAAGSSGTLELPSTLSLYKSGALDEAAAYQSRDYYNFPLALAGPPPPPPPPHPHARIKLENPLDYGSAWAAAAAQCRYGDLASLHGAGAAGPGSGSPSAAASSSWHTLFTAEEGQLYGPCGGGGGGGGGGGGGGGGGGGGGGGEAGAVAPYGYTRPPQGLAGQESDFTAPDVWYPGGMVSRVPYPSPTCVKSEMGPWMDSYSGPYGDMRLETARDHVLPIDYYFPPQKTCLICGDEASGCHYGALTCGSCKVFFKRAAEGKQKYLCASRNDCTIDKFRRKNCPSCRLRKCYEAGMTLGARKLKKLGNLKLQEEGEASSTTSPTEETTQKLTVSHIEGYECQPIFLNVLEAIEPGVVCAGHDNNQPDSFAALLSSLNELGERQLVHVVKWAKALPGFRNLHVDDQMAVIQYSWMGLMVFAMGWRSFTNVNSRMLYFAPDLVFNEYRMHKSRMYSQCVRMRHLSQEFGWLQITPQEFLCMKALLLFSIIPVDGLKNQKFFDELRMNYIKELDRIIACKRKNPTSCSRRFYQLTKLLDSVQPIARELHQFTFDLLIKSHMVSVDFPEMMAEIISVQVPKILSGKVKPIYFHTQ
Sequence of GLYCINE RECEPTOR, STRYCHNINE INSENSITIVE (P35439 394-800): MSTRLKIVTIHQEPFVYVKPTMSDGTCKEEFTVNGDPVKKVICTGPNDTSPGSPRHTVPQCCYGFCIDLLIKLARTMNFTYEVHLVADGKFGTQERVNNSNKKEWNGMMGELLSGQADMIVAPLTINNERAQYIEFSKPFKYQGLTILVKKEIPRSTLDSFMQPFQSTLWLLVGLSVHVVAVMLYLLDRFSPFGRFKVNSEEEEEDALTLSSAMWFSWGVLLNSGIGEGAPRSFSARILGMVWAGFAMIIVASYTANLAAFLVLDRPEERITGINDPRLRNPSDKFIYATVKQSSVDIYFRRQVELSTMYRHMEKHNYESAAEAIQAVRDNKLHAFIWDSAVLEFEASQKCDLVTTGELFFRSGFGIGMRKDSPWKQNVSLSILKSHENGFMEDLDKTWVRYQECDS

Structure (SMILES) | fraction unbound [1] | Mean inhibition (%) [2] | logD [3] | inhibition at 10 µM (HISTAMINE H1 RECEPTOR) | inhibition at 10 µM (HISTAMINE H2 RECEPTOR) | inhibition at 10 µM [4] | inhibition at 10 µM (ANDROGEN RECEPTOR) | inhibition at 10 µM [5] | inhibition at 10 µM (α2A-ADRENOCEPTOR) | inhibition at 10 µM (ADENOSINE A1 RECEPTOR) | inhibition at 10 µM (alpha1A-ADRENOCEPTOR) | inhibition at 10 µM (β2-ADRENOCEPTOR) | inhibition at 10 µM [6] | inhibition at 10 µM (5HT2A) | inhibition at 10 µM (MUSCARINIC RECEPTOR M2) | inhibition at 10 µM [7] | inhibition at 10 µM (SEROTONIN TRANSPORTER) | inhibition at 10 µM (5HT2B) | inhibition at 10 µM (DOPAMINE D1 RECEPTOR) | inhibition at 10 µM (5HT1A) | further results
Cc1nnc(-c2ccc(OCCCOc3ccc(CCC(=O)O)c(F)c3)c(F)c2)s1 [Compound 1] | 0.0021 | -6.9% | 1.5 | -7% | 10.9% | -3.7% | -1.6% | -3.3% | -3.2% | 9.4% | 1.7% | 4% | 1.2% | -3.3% | 4.2% | -7.5% | 6.9% | 6.6% | -3.3% | -20.6% | inhibition at 10 µM (κ OPIOID RECEPTOR): 10.9%; inhibition at 10 µM (µ OPIOID RECEPTOR): -6.9%; inhibition at 10 µM (CANNABINOID RECEPTOR CB1): 9.3%; inhibition at 10 µM (HISTAMINE H3 RECEPTOR): 4.9%; inhibition at 10 µM [8]: 2.3%; inhibition at 10 µM [9]: -1.9%; inhibition at 10 µM (5HT3): -4.7%; inhibition at 10 µM (PROSTAGLANDIN F RECEPTOR): 0%; inhibition at 10 µM (GLUCOCORTICOID RECEPTOR): -3.8%; inhibition at 10 µM (ESTROGEN RECEPTOR α): 13.6%; inhibition at 10 µM (PPARγ): 95%
COc1ccc(Oc2ccc3ncn(CCOc4ccc(CCC(=O)O)cc4)c3c2)cc1 [Compound 2] | 0.0042 | -2.9% | 1.7 | -6.7% | -3.1% | 0.9% | 3.1% | 0.7% | 4.9% | -3.6% | 2.9% | 7% | 7.6% | -8.8% | 6.9% | -6.2% | 6.4% | 7.1% | -5.7% | 22.7% | inhibition at 10 µM (κ OPIOID RECEPTOR): -0.7%; inhibition at 10 µM (µ OPIOID RECEPTOR): 6.2%; inhibition at 10 µM (CANNABINOID RECEPTOR CB1): -3.2%; inhibition at 10 µM (HISTAMINE H3 RECEPTOR): 2.1%; inhibition at 10 µM [8]: -8.3%; inhibition at 10 µM [9]: -6.8%; inhibition at 10 µM (5HT3): 0.3%; inhibition at 10 µM (PROSTAGLANDIN F RECEPTOR): 4.6%; inhibition at 10 µM (GLUCOCORTICOID RECEPTOR): -2.1%; inhibition at 10 µM (ESTROGEN RECEPTOR α): -1.8%; inhibition at 10 µM (PPARγ): 89.6%
